This note sets out measurements from patent US20040146617A1, “Compositions and methods for suppressing cracking and water loss from cherries” (priority 1998, published 2004).

The structures appear in SMILES notation.

This assay relates to cherries. In words: Cherry firmness after cold storage, pre-harvest application. The format is in vivo. Particulars: after 12 days of cold storage (33° F.); sprayed 2 weeks before harvest; calcium chloride 0.5% w/v, Formulation III 10% (v/v). The protocol:
1. Effect of Pre-Harvest Application of Matrix III and Calcium on Firmness. The effect of the Formulation III (Matrix III, see EXAMPLE 15) on cherry firmness was determined in the lab with a firmness meter. Firmness is a function of water content. […] After drying, a 10% (v/v) dilution of Formulation III was applied to half of the trees. […] Increased firmness was also observed in a larger orchard trial with ‘Bing’ and ‘Van’ cherries.

As for `[Ca+2].[Cl-].[Cl-]` [calcium chloride, Calcium chloride], the firmness amounted to 277.1 mg/mm^2.
